Data: patent US11780845B2 (Relay Therapeutics, Inc., priority 2019, dated 2023)

Molecular target: FGFR2 (Homo sapiens (Human), UniProt P21802)
Assay: FGFR2 Biochemical Caliper Assay
Description: Compounds of the present invention were also tested in a FGFR2 Biochemical Caliper Assay. Compounds were prepared in 10 mM DMSO solution and serially diluted into 11 concentrations by 3-fold dilution. […] 5 uL of ATP solution (100 uM) was added to start the reaction and the plate was incubated for 90 minutes, then 70 uL of stopping buffer (0.5M EDTA) was added to terminate the reaction. Each well was analyzed using EZ reader.

Chain of FGFR2 (P21802 22-821): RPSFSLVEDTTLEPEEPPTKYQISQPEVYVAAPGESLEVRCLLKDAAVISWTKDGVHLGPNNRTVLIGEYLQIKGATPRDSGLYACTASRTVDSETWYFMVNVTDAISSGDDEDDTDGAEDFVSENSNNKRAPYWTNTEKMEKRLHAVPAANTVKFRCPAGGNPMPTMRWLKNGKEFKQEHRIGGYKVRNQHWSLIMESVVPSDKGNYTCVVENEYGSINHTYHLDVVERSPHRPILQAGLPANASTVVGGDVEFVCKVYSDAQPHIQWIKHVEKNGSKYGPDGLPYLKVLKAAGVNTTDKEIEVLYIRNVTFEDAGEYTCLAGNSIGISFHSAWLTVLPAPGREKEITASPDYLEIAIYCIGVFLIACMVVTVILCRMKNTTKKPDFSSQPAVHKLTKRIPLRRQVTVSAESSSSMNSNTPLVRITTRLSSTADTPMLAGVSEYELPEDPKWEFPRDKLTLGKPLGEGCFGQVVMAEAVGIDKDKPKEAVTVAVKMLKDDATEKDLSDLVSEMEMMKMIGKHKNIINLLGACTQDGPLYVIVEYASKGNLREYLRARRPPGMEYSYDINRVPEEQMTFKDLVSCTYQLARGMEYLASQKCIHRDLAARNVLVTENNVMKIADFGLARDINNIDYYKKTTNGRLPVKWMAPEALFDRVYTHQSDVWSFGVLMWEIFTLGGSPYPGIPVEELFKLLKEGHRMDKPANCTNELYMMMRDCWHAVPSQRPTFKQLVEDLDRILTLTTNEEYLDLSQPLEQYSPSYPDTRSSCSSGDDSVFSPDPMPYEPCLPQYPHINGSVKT

| Structure (SMILES) | IC50 [µM] |
| --- | --- |
| C=CC(=O)Nc1ccc(-c2c(-c3ccc(Sc4ncccn4)c(OC)c3)c3c(N)ncnc3n2C)cc1 [Example 82] | < 0.1 |
| CC#CC(=O)Nc1ccc(-c2c(-c3ccc(Oc4ncccn4)cc3)c3c(N)ncnc3n2C)cc1 [Example 84] | < 0.1 |
| C=C(C)C(=O)Nc1ccc(-c2c(-c3ccc(S(=O)(=O)N4CCCC4)cc3)c3c(N)ncnc3n2C)cc1 [Example 85] | 0.1 to 0.25 |
| C=CC(=O)Nc1ccc(-c2c(-c3ccc(Oc4ncc(N)cn4)c(OC)c3)c3c(N)ncnc3n2C)cc1 [Example 87] | < 0.1 |
| C=C(C)C(=O)Nc1ccc(-c2c(-c3ccc(Oc4cccc(C)n4)cc3)c3c(N)ncnc3n2C2CCOCC2)cc1 [Example 88] | 0.1 to 0.25 |
| C=C(C)C(=O)Nc1ccc(-c2c(-c3ccc(Oc4cccc(C)n4)cc3)c3c(N)ncnc3n2CCN2CCN(C)CC2)cc1 [Example 89] | < 0.1 |
| C=C(C)C(=O)Nc1ccc(-c2c(-c3ccc(C(O)c4ncccn4)c(OC)c3)c3c(N)ncnc3n2C)cc1 (stereo not shown) [Example 93] | 0.25 to 1 |
| C=CC(=O)Nc1ccc(-c2c(C3CCN(C)CC3)c3c(N)ncnc3n2C)cc1 [Example 99] | 1 to 100 |
| C=CC(=O)Nc1ccc(-c2c(C3CCN(C(=O)CNC(=O)NC)CC3)c3c(N)ncnc3n2C)cc1 [Example 104] | 1 to 100 |
| C=CC(=O)Nc1ccc(-c2c(C3CCN(C(=O)C(C)CCNC)CC3)c3c(N)ncnc3n2C)cc1 (stereo not shown) [Example 105] | 0.25 to 1 |
| C=C(C)C(=O)Nc1ccc(-c2c(-c3ccc(Cc4ncccn4)c(OC)c3)c3c(N)ncnc3n2C)cc1 [Example 106] | 1 to 100 |
| C=C(C)C(=O)Nc1ccc(-c2c(-c3ccc4c(c3)CC(=O)N4)c3c(N)ncnc3n2C)cc1 [Example 125] | 1 to 100 |
| C=C(C)C(=O)Nc1ccc(-c2c(-c3cnn(Cc4cccnc4)c3)c3c(N)ncnc3n2C)cc1 [Example 126] | 1 to 100 |

Other lines, results leading:

| IC50 [µM] | Structure (SMILES) |
| --- | --- |
| 1 to 100 | C=C(C)C(=O)Nc1ccc(-c2c(-c3ccc(Oc4cnc(C)cn4)c(F)c3)c3c(N)ncnc3n2C)cc1 [Example 92] |
| 0.25 to 1 | C=C(C)C(=O)Nc1ccc(-c2c(-c3ccc(Oc4ccc(Cl)cn4)cc3)c3c(N)ncnc3n2C)cc1 [Example 97] |
| 0.1 to 0.25 | C=C(C)C(=O)Nc1ccc(-c2c(-c3ccc(Oc4ncc(Cl)cn4)c(OC)c3)c3c(N)ncnc3n2C)cc1 [Example 102] |
| 0.25 to 1 | C=C(C)C(=O)Nc1ccc(-c2c(-c3cc(F)c(Oc4ccccn4)c(F)c3)c3c(N)ncnc3n2C)cc1 [Example 107] |
| 1 to 100 | C=C(C)C(=O)Nc1ccc(-c2c(-c3ccc(Oc4ccc(C)cn4)c(O)c3)c3c(N)ncnc3n2C)cc1 [Example 108] |
| 0.1 to 0.25 | C=C(C)C(=O)Nc1ccc(-c2c(-c3ccc(Oc4ncc(F)cn4)c(C)c3)c3c(N)ncnc3n2C)cc1 [Example 109] |
| 1 to 100 | C=C(C)C(=O)Nc1ccc(-c2c(-c3ccc(Oc4ccc(F)cn4)c(O)c3)c3c(N)ncnc3n2C)cc1 [Example 111] |
| 1 to 100 | C=C(C)C(=O)Nc1ccc(-c2c(-c3ccc(Oc4ccc(F)nc4)c(O)c3)c3c(N)ncnc3n2C)cc1 [Example 112] |
| 0.25 to 1 | C=C(C)C(=O)Nc1ccc(-c2c(-c3ccc(Oc4ncc(Cl)cn4)c(F)c3)c3c(N)ncnc3n2C)cc1 [Example 115] |
| 1 to 100 | C=C(C)C(=O)Nc1ccc(-c2c(-c3cc(F)c(Oc4cnccn4)c(F)c3)c3c(N)ncnc3n2C)cc1 [Example 118] |
| 1 to 100 | C=C(C)C(=O)Nc1ccc(-c2c(-c3ccc(Oc4ccc(Cl)cn4)c(O)c3)c3c(N)ncnc3n2C)cc1 [Example 119] |
| 0.25 to 1 | C=C(C)C(=O)Nc1ccc(-c2c(-c3ccc(Oc4ccc(Cl)c(C)n4)cc3)c3c(N)ncnc3n2C)cc1 [Example 122] |
| 1 to 100 | C=C(C)C(=O)Nc1ccc(-c2c(-c3ccc(OCC(=O)O)cc3)c3c(N)ncnc3n2C)cc1 [Example 124] |
| 0.1 to 0.25 | C=C(C)C(=O)Nc1ccc(-c2c(-c3cc(N)c(Oc4ccccn4)c(F)c3)c3c(N)ncnc3n2C)cc1 [Example 127] |
| 0.25 to 1 | C=C(C)C(=O)Nc1ccc(-c2c(-c3cc(C)c(Oc4ccccn4)c(O)c3)c3c(N)ncnc3n2C)cc1 [Example 129] |
